Test results published in paper PMC11206987, “Investigation of the Efficacy of Benzylidene-3-methyl-2-thioxothiazolidin-4-one Analogs with Antioxidant Activities on the Inhibition of Mushroom and Mammal Tyrosinases” (Molecules, 2024).

Columns and labels:
[1] = DPPH radical scavenging activity assay; conditions: 500 µM
Method: First, the ability of BMTTZD analogs 1–8 to scavenge DPPH radicals was examined using L-ascorbic acid (vitamin C; positive control). All samples were tested at 500 µM.
The ability of the BMTTZD analogs to scavenge DPPH radicals was evaluated as previously reported. To each well of a 96-well plate containing analogs 1–8 (5 mM in […]; 20 µL) was added a DPPH solution (0.2 mM in methanol; 180 µL). The mixture was kept in a place without light for 30 min at 25°C to generate DPPH radicals. The well absorbance at 517 nm was measured utilizing a VersaMax® reader. The ability of the analogs to remove DPPH radicals was compared to that of vitamin C.

[2] = molecular target: T1, B16F10 cellular tyrosinase (Mus musculus, UniProt P11344); test: Cellular tyrosinase activity assay in B16F10 cells stimulated with IBMX plus α-MSH; format: cell-based, murine; conditions: 72 h
T1 construct: host or cells: B16F10 cells
T1 sequence (P11344 19-533): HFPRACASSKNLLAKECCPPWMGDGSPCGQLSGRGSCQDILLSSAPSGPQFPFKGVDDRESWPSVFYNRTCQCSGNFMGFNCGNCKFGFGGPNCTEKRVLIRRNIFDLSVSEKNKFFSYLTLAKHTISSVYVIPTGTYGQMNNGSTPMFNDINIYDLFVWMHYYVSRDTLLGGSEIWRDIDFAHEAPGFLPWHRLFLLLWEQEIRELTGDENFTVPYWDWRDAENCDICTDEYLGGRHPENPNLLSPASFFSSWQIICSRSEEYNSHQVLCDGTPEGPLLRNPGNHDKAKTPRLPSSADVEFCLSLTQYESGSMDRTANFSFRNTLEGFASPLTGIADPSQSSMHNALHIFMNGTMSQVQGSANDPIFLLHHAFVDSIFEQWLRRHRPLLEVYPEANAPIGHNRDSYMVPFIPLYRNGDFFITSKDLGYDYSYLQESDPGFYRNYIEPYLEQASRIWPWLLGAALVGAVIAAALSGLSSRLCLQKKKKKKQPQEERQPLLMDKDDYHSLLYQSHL
Method: Analogs 1, 3, and 5 were exposed to B16F10 cells at various concentrations (20, 10, 5, and 0 µM) before exposure to IBMX (200 µM; 3-isobutyl-1-methylxanthine) and α-MSH (1 µM; α-melanocyte-stimulating hormone). After incubation (72 h), B16F10 cellular tyrosinase activity was determined. […] It was examined whether the cellular tyrosinase inhibition of the BMTTZD analogs could influence B16F10 cellular melanin contents.
Effects on B16F10 tyrosinase inhibition were evaluated as previously described. A 6-well plate containing 1 × 10^5 B16F10 cells/well was cultivated for 23 h under conditions identical to those of the cell culture. […] The cells were cultivated for 72 h. After washing 2 times with PBS, the cells were lysed in a 100 µL lysis buffer, including phenylmethylsulfonyl fluoride (5 µL; 1 mM), Triton X-100 (5 µL; 1%), and phosphate buffer (90 µL; 50 mM (pH 6.5)). After 30 min incubation at −80 °C, the cell lysates were centrifuged at 4 °C for 30 min. The supernatants (80 µL) of the lysates were moved to each well of a microplate and mixed with 20 µL 10 mM L-dopa.

[3] = system: B16F10 cells; test: Melanin content assay in B16F10 cells; format: cell-based, murine; conditions: 72 h
Method: We examined whether the ability of analogs 1, 3, and 5 to inhibit intracellular tyrosinase activity could affect intracellular melanin levels. B16F10 cells were utilized as mammalian cells. IBMX and α-MSH were used at 200 µM and 1 µM, respectively, to increase melanin biosynthesis. […] For the intracellular melanin content determination, the absorbance at 405 nm was evaluated after 72 h of incubation.
The effect of BMTTZD analogs on melanin biosynthesis was investigated following a previously described method. A 6-well microplate containing 1 × 10^5 B16F10 cells/well was cultivated for 23 h under conditions identical to those of the cell culture. […] After exposure to IBMX and α-MSH, B16F10 cells were cultivated for 72 h at 37 °C. The cells were rinsed 2 times with PBS, treated with 1N-NaOH aqueous solution (100 µL), and cultivated at 60 °C for 1 h. The lysates were moved to a microplate. At 405 nm, the well absorbance was measured utilizing a VersaMax® reader. Each experiment was carried out three times independently.

SMILES: CN1C(=O)/C(=C/c2ccc(O)cc2O)SC1=S [Analog 3, (Z)-5-(2,4-Dihydroxybenzylidene)-3-methyl-2-thioxothiazolidin-4-one]
- DPPH radical scavenging activity [1]: 82%
- effect on stimulator-induced cellular tyrosinase activity ([2]; 5, 10, 20 µM, IBMX plus α-MSH): concentration-dependently and significantly reduced
- cellular tyrosinase inhibition compared with kojic acid (20 µM) ([2]; analog at 10 µM): slightly more strongly than kojic acid
- cellular tyrosinase inhibition compared with kojic acid (20 µM) ([2]; analog at highest concentration tested (20 µM)): stronger inhibitory effects than kojic acid
- decrease of intracellular melanin contents ([3]; 20 µM, IBMX plus α-MSH (raised melanin 4.4-fold)): 2.0 fold
- effect on intracellular melanin contents enhanced by IBMX plus α-MSH ([3]; 5, 10, 20 µM): significantly reduced the melanin contents
